Source: publication PMC6028423, “Synthetic molecular evolution of hybrid cell penetrating peptides” (Nature Communications, 2018)

Columns and labels:
[1] = test system: HeLa pTRE-LucIVS2-705 cells; experiment: PNA705 mediated luciferase splice correction (luminescence per µg protein); format: cell-based, human; conditions: for PNA705 delivery efficiency in words (Fig. 2a): tested as CPP-PNA705 conjugate, up to 5 µM
Experimental: Cells were treated for 30 min in serum-free media at 37 °C, and then allowed to recover for 24 h in complete media. […] After 24 h, cell lysates were assayed for luciferase by luminescence (Fig. 2a) and for splice corrected mRNA by quantitative PCR (Fig. 2b). To control for total cell density, lysates were also analyzed for total protein by the BCA assay.
HeLa pTRE-LucIVS2-705 cells were seeded on flat-bottom 96-well plates at 10,000 cells per well in 200 µl complete DMEM. The following day, cells were washed in phosphate buffered saline and topped with premixed 50 µl 2× serum/phenol red-free DMEM (Gibco) + 50 µl peptide cleavage solution (ddH2O + peptide). Cells were transfected for 30 min at 37 °C with 5% CO2. The transfection solution was removed, cells were topped with 100 µl complete DMEM. The next day (24-h recovery) cells were washed in PBS. Cells were lysed in 20 µl reporter lysis buffer (Promega E4030) following the manufacturer’s protocol. A volume of 10 μl of lysate from each well was transferred to a 96-well solid black plate; 100 μl of luciferase assay reagent from the Luciferase Assay System (Promega E1500) was added, the plate was agitated for 10 s, and luminescence was measured with a BioTek Synergy 2 plate reader with injector ports. Total protein was measured with a BCA assay (described below). Data were expressed as RLU per µg protein (RLU (µg protein)^−1). During screening, positive wells were defined as those whose RLU per µg protein values exceeded the average for the plate by at least three standard deviations. Subsequent PNA705 delivery experiments were conducted as described above except that volumes were scaled for 24-well plate format.
The remaining 10 µl of lysate from the splice correction assay was combined with 100 µl of the BCA reagents and incubated for 1–4 h at 37 °C per the manufacturer’s protocol. Absorbance at 562 nm was measured using a measured with a BioTek Synergy 2 plate reader.

HepG2 cells = experiment: TAMRA delivery assay, flow cytometry; format: cell-based, human; conditions: tested as peptide-TA; 0.5 µM peptide-TA + 4.5 µM peptide-C, 30 min, serum-free DMEM, trypsinized, live SYTOX Green-negative cells; temperature not given
Experimental: (§1) Parent and daughter sequences lacking the PNA cargo were characterized to determine the effect of the cargo on delivery. Sequences were labeled with the fluorophore tetramethylrhodamine (TAMRA) on a C-terminal cysteine residue (PDEP-TA) and their delivery to multiple human cell types was measured by flow cytometry. To test the efficiency under stringent conditions, we used peptide concentrations of only 5 μM total containing 0.5 μM dye-labeled peptide. Peptides were incubated with HeLa, RAW264.7, HepG2, and MCF-7 cells for 30 min at 4 °C, 21 °C, or 37 °C, followed by trypsinization to detach cells for counting and to digest any externally bound peptide. PDEP-TA conjugates are not toxic at this concentration range (Supplementary Figure 2). Flow cytometric analysis (Fig. 3 and Supplementary Figure 4) was used to count TAMRA-positive cells and to measure TAMRA intensity distributions. Confocal microscopy was used to visualize peptide distribution in cells for each cell type (Fig. 3). Time series confocal images of PDEP P17-TA incubated HeLa cells at 21 °C and 37 °C (Fig. 3a) show immediate punctate membrane association. At 37 °C, but not at 21 °C, uptake of dye in punctate structures is observed. At both temperatures, individual cells rapidly and stochastically show the appearance of TAMRA with a diffuse cytosolic distribution in addition to bright puncta. All PDEPs behave similarly and maximum intensity is reached by 30 min at all temperatures. Cell surface-bound peptide is not observed under flow cytometry conditions (Fig. 3a).
(§2) HeLa, RAW264.7, HCT116, HepG2, and MCF-7 cells were plated in 12-well plates at 100,000 cells/well. After 24 h, cells were gently washed in PBS, topped with 500 µl of PDEP-TA solution containing 0.5 µM PDEP-TA + 4.5 µM PDEP-C in sfDMEM without phenol red, and incubated for 30 min at either 4 °C, 23 °C, or 37 °C. […] Cells were transferred to a filter-topped flow cytometry tube and analyzed on a BD LSR II flow cytometer. Cells displaying a normal morphology were gated and first analyzed for GFP fluorescence using the […] laser. GFP-negative cells were used to generate a histogram of TAMRA fluorescence, measured with the […] laser.
(§3) Supplementary Figure 4. Flow cytometry gating strategy for Peptide-C-TA treated cells. In this example, HeLa cells were treated with 5 μM P17-C-TA for 30 minutes at 37°C. Live cells were identified by forward and side scatter. Doublets were excluded in two gating steps using SSC-H x SSC-W and FSC-H x FSC-W. Cells with compromised membranes permitting SYTOX green entry were excluded. The percent of the remaining cells testing positive for TAMRA fluorescence were defined as those with a fluorescence value ≥3000. Additionally, the mean fluorescence for all SYTOX negative cells was recorded.

MCF-7 cells = experiment: TAMRA delivery assay, flow cytometry; format: cell-based, human; conditions: tested as peptide-TA; 0.5 µM peptide-TA + 4.5 µM peptide-C, 30 min, serum-free DMEM, trypsinized, live SYTOX Green-negative cells; temperature not given
Experimental: as §1, §2, §3

HeLa cells = experiment: TAMRA delivery assay, flow cytometry; format: cell-based, human; conditions: tested as peptide-TA; 0.5 µM peptide-TA + 4.5 µM peptide-C, 30 min, serum-free DMEM, trypsinized, live SYTOX Green-negative cells; temperature not given
Experimental: as §1, §2, §3

RAW264.7 cells = experiment: TAMRA delivery assay, flow cytometry; format: cell-based; conditions: tested as peptide-TA; 0.5 µM peptide-TA + 4.5 µM peptide-C, 30 min, serum-free DMEM, trypsinized, live SYTOX Green-negative cells; temperature not given
Experimental: (§4) Parent and daughter sequences lacking the PNA cargo were characterized to determine the effect of the cargo on delivery. Sequences were labeled with the fluorophore tetramethylrhodamine (TAMRA) on a C-terminal cysteine residue (PDEP-TA) and their delivery to multiple human cell types was measured by flow cytometry. To test the efficiency under stringent conditions, we used peptide concentrations of only 5 μM total containing 0.5 μM dye-labeled peptide. Peptides were incubated with HeLa, RAW264.7, HepG2, and MCF-7 cells for 30 min at 4 °C, 21 °C, or 37 °C, followed by trypsinization to detach cells for counting and to digest any externally bound peptide. PDEP-TA conjugates are not toxic at this concentration range (Supplementary Figure 2). […]
HeLa, RAW264.7, HCT116, HepG2, and MCF-7 cells were plated in 12-well plates at 100,000 cells/well. […] Cells were transferred to a filter-topped flow cytometry tube and analyzed on a BD LSR II flow cytometer. Cells displaying a normal morphology were gated and first analyzed for GFP fluorescence using the […] laser. GFP-negative cells were used to generate a histogram of TAMRA fluorescence, measured with the 543 nM laser.
Supplementary Figure 4. […] The percent of the remaining cells testing positive for TAMRA fluorescence were defined as those with a fluorescence value ≥3000. Additionally, the mean fluorescence for all SYTOX negative cells was recorded.

[2] = test system: HeLa pTRE-LucIVS2-705 cells; experiment: qRT-PCR of correctly spliced luciferase mRNA; format: cell-based, human; conditions: 1.25 µM CPP-PNA705, 30-min incubation, 24-h recovery
Experimental: To quantify splice correction at the mRNA level, we designed qRT-PCR primers to target the splice junction of the properly spliced mRNA transcript. […] We observe a >100 fold increase in properly spliced luciferase mRNA in cells treated with PDEP–PNA705 relative to control. At 5 μM, the most efficient chimera, P14-PNA705, is 30-fold better than tat, 7-fold better than penetratin, and 4-fold better than Arg9.
HeLa pTRE-LucIVS2 cells were treated as described above with PDEP–PNA705 constructs at varying concentrations. RNA was extracted using the Direct-Zol^TM RNA purification system (Zymo Research) and reverse transcribed with the iScript cDNA synthesis kit (Bio-Rad), and mRNA splice correction was detected using PowerUp SYBR Green master mix (ThermoFisher) on an Applied Biosystems QuantStudio 6 using the following primers sets: […]
The relative quantification of correctly spliced mRNA (90 bp amplicon) over background was calculated using the Pfaffl model.

[3] = test system: HeLa, RAW264.7, HepG2, and MCF-7 cells; experiment: TAMRA delivery, flow cytometry and confocal microscopy, statements over several cell types or cell type not stated; format: cell-based; conditions: cell type and temperature not stated; threshold just above cells treated with free TAMRA; single example
Experimental: as §4, with “[…].” for “PDEP-TA conjugates are not toxic at this concentration range (Supplementary Figure 2).”
HeLa, RAW264.7, HCT116, HepG2, and MCF-7 cells were plated in 12-well plates at 100,000 cells/well. […] Cells were transferred to a filter-topped flow cytometry tube and analyzed on a BD LSR II flow cytometer. Cells displaying a normal morphology were gated and first analyzed for GFP fluorescence using the […] laser. GFP-negative cells were used to generate a histogram of TAMRA fluorescence, measured with the […] laser. […]
Cells were treated as described above for the TAMRA delivery assay and immediately imaged to avoid artifacts resulting from fixation. The distribution of TAMRA and Sytox Green was analyzed using a confocal scanning Nikon Eclipse Ti2 inverted microscope using a 40× oil-immersion objective. […]

## (RXRRBR)2 [Peptide B, (RXRRBR)2, eight arginines and four linear linkers; drives delivery of splice correcting PMOs in vivo]
[1]; PepB-PNA705, P17-PNA705, tat-PNA705 and no treatment, same approach as in the paper
  PNA705 delivery efficiency, head-to-head comparison in the response to reviewers: much more efficient than tat
[1]
  PNA705 delivery efficiency in words (Fig. 2a): relatively low PNA delivery efficiency

## Arg9
HepG2 cells
  HEPG2 %+ (TAMRA-positive cells): 16.6%
MCF-7 cells
  MCF-7 %+ (TAMRA-positive cells): 1.6%
HeLa cells
  HeLa %+ (TAMRA-positive cells): 8.1%
RAW264.7 cells
  RAW %+ (TAMRA-positive cells): 64.5%
[1]
  PNA705 delivery efficiency in words (Fig. 2a): much better than tat itself
[2]
  increase in corrected mRNA over control: not measurably higher than control

## CN(C)c1ccc2c(-c3ccccc3C(=O)[O-])c3ccc(N(C)C)cc3[o+]c2c1 [TAMRA, tetramethylrhodamine]
[3]
  TAMRA-positive cells, example flow cytometry results (Fig. 3b): 1.99%
HepG2 cells
  HEPG2 %+ (TAMRA-positive cells): 0.0%
MCF-7 cells
  MCF-7 %+ (TAMRA-positive cells): 14.4%
HeLa cells
  HeLa %+ (TAMRA-positive cells): 0.0%
RAW264.7 cells
  RAW %+ (TAMRA-positive cells): 6.90%
